What was measured:
[1] = tested on: acetic acid-induced colitis (colonic mucosa myeloperoxidase); experiment: Acetic acid-induced colitis in rats; format: in vivo, male rats (Sprague-Dawley); conditions: 10 mg/kg po
Source text: Acetic Acid-Induced Colitis in Rats
The rat acetic acid-induced colitis bioassay has been described by J. E. Krawisz, et al. in Amer. J. Proc. Gastro. Col. Rec. Surg. 31, 11-18 (1980), and by P. Sharon and W. F. Stenson in Gastroenterology 88, 55-63 (1985) and 86, 453-460 (1984). Acetic acid-induced colitis is characterized by the movement of inflammatory cells into the colon, with the number of such cells in the mucosa being measured by the activity of myeloperoxidase, a marker enzyme for these cells. Positive desirable activity is indicated by a reduction in the high levels of myeloperoxidase caused by acetic acid. Male rats (Sprague-Dawley), weighing 150 to 300 g, were pretreated twice daily for two days with either the vehicle (water or dimethylsulfoxide) or the test inhibitor compound suspended in water or dissolved in dimethylsulfoxide and orally administered. […] The colonic mucosa was surgically removed and homogenized in an aqueous buffer at pH 6 with a Tissumizer or similar device and myeloperoxidase was measured in the homogenate using o-phenyl enediamine as a chromagen, as described by A. Voller, D. E. Bidwell and A. Bartlett in "The Enzyme Linked Immunosorbent Assay (ELISA)", Zoological Soc., London, 1979, pages 29-30. […]

[2] = tested on: carrageenan-induced paw edema; experiment: Rat carrageenan paw edema; format: in vivo, Lewis rats; conditions: 30 mg/kg ip, 1 hr prior to carrageenan
Procedure: Rat Carrageenan Paw Edema
Representative compounds of the invention were tested in rat carrageenan-induced paw edema to determine their ability to inhibit this acute inflammatory response. Test compounds were administered intraperitoneally or orally to groups of seven Lewis rats (~200 gm) 1 hr prior to carrageenan administration. The test compounds were dissolved in dimethyl sulfoxide for intraperitoneal administration and dissolved or suspended in Labrafil […] for oral administration. At 0 hour, 0.1 mL of 1% carrageenan dissolved in pyrogen free […] was injected subplanetary into the right hind paw to elicit the inflammatory response. The volume (in mL) of the right hind paw was measured by immersion of the paw to the level of the lateral malleolus in an aqueous plethysmometer immediately prior to the injection of carrageenan and then at 1, 2 and 4 hr after carrageenan injection. The paw edema was calculated by subtracting the zero time reading from the readings taken after injection. The percent change of the edema volume from the vehicle treated control was calculated to determine the activity of the test compound. Statistical analysis of the mean paw edema values of the control versus the treated groups was performed using Student's t-test.

[3] = tested on: croton oil-induced mouse ear edema; experiment: Croton oil mouse ear edema test; format: in vivo, male CD-1 mice; conditions: 1 mg topical, coapplied with croton oil; ear punch weight at 6 hours
Procedure: Croton Oil Mouse Ear Edema Test
The croton oil-induced mouse ear edema test, a model of irritant-induced contact dermatitis, has been used for evaluation of the PLA2 inhibitors by the topical route of administration. This test was carried out as described in the following references: […]
Twenty five μl of a 1% croton oil solution [dissolved in a mixture of pyridine/water/diethyl ether at a ratio of 5/20/75 (croton oil vehicle)] are applied to the outer side of the right ear of 3-4 week old male CD-1 mice (8 animals per group). The test compounds are dissolved directly in the 1% croton oil solution at various concentrations and coapplied. Control animals receive 25 μl of croton oil vehicle on the right ear. Biopsy punches are removed at 6 hours from the right ear of the animals using a 6 mm skin trephine (Roboz, Washington, D.C.) and the wet weight of the ear punches is determined. The weight of the biopsy punches is a measure of ear inflammation, primarily edema. The data are expressed as percent inhibition relative to control groups.
Statistical analysis of the mean edema values of the control versus the treated groups is performed using Student's t-test. The significance of changes from mean value for vehicle-treated animals is as follows (*p<0.05, **p<0.01, ***p<0.005, ns/not significant).

[4] = biological target: T1, HSF-PLA2 (extracellular PLA2 obtained from human synovial fluid) (Homo sapiens, UniProt P14555); experiment: Assay for inhibition of HSF-PLA2 in vitro; format: biochemical; conditions: read-out: % Inhib of HSF-PLA2
T1 construct: extracellular enzyme obtained from human synovial fluid; from tissue; host or cells: human synovial fluid (pooled)
T1 sequence (P14555 21-144): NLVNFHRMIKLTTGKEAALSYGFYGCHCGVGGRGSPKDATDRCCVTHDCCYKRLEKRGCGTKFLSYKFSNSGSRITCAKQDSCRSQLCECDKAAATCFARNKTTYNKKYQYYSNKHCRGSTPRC
Procedure: Assay for Inhibition of HSF-PLA2 In Vitro
The PLA2 used in this test is the extracellular enzyme obtained from human synovial fluid (HSF-PLA2).
The assay for HSF-PLA2 activity was a modification of the described method [Franson R., Dobrow R., Weiss, J., Elsbach P., and Weglick W. B., J. Lipid Res., 19, 18-23 (1978)] which was conducted using [1-^14 C]-oleate-labelled E. coli substrate in excess at a final concentration of 20,000 dpm/ml. This was equivalent to 18.2 mM of cell membrane phospholipid phosphorus and 2×10^9 autoclaved E. coli/ml. The optimal conditions which were developed for the assay of HSF-PLA2 inhibitors are summarized as follows. A total volume of 0.5 ml of reaction mixture typically had the following final composition: substrate (20,000 dpm/ml); enzyme (0.1% HSF, v/v); 2 mM CaCl2; 150 mM Na^+; 50 mM sodium HEPES buffer, pH 7.3; and 1% dimethyl sulfoxide (DMSO, used to solubilize test inhibitors) in the presence or absence of inhibitor. The reaction was initiated by the addition of HSF-PLA2 and duplicate samples of the mixture were incubated in 13×100 mm glass tubes with shaking for 30 minutes at 37° C. The reaction was terminated by the addition of 2.5 ml of chloroform-methanol (1 to 1.5, v/v). The extraction of lipids from the stopped reaction mixture was conducted by the further additions of 0.5 ml of chloroform and 1 ml of water with mixing. After centrifuging, the lower chloroform phase was transferred to smaller glass tubes and the solvent was evaporated to dryness with a nitrogen stream. The extracted lipid residue was redissolved in […] of a solution containing carrier oleic acid (0.2 mg/ml) in chloroform-methanol [9 to 1, v/v]). The whole lipid extract was applied to a preactivated (30 minutes at 110° C.) silica gel-impregnated glass fiber thin layer chromatography sheet (ITLC type SG sheet from Gelman Sciences Inc., Ann Arbor, Mich.) using hexane-acetic acid (100 to 1, v/v) as the developing solvent. This TLC system rapidly (6 minutes) resolved the enzymatically released product, ^14 C-oleic acid, from the unreacted ^14 C-phospholipid substrate. The unsaturated lipids were located on the chromatogram by a brief exposure to iodine vapor. The oleic acid zone (Rf value 0.95) and phospholipid zone (origin) were cut out, chopped into small pieces, shaken with 2 ml of ethanol-water (80 to 20, v/v) and 15 ml of Aquasol and counted for radio-activity. A control incubation of substrate in the absence of HSF-PLA2 was performed in each experiment. The PLA2 activity of the human synovial fluid was corrected for this small control value. […] The specific activity of PLA2 in the pooled human synovial fluid under the optimal assay conditions was 49.2 nmoles [1-^14 C]-oleic aid released hour^-1 mg^-1. The IC50 (μM concentration of test compound that produces 50% inhibition of PLA2 activity) was determined for each test compound.

[5] = tested on: adjuvant arthritis induced by Freunds complete adjuvant; conditions: dose 10 mg/kp ip
Procedure: Representative compounds of the invention were tested in the standard adjuvant arthritis model in rats, induced by Freunds complete adjuvant, as described by C.

Row | Structure (SMILES) | % Inhib of Myeloperoxidase Accumulation [1] [%] | % Inhib of Carrageenan Paw Edema 2 hr 30 mg/kg ip [2] [%] | % Inhib of Croton Oil Mouse Ear Edema (1 mg) [3] [%] | inhibition at 5.8 µM ([4]; 5.8 μM test compound) [%] | Change in Paw Volume in ml, Treated [5] [mL] | inhibition at 1 µM ([4]; 1 μM test compound) [%]
1 | CCCCCCCCCCCCCCCCCCOc1cccc(C(=O)N(CC(=O)O)CC(=O)O)c1 [Example 4, N-(Carboxymethyl)-N-[3-(octadecyloxy)benzoyl]glycine] | 112 ± 53 | 50 | 17 | 50 | -0.14 ± 0.06 | –
2 | CCCCCCCCCCCCCCCCCCOc1ccc(C(=O)C(=O)N(CC(=O)O)CC(=O)O)cc1 [Example 65, N-(Carboxymethyl)-N-[2-[4-(octadecyloxy)phenyl]-1,2-dioxoethyl]glycine] | – | 71 | 44 | – | -0.07 ± 0.08 | 74

Reference: patent publication US5298652A, “N-substituted glycines, inhibitors of phospholipase A2” (Hoffmann-La Roche Inc., priority 1992, dated 1994)
